Series [1] deals with rat 5HT transporter (rSERT) (Rattus norvegicus, UniProt P31652). The series is described as follows: [3H]5HT transport assay in HeLa cells transfected with BS4E-10 cDNA (rSERT). The series is classed as cell-based.
The target in series [2] is human 5HT transporter (hSERT) (Homo sapiens, UniProt P31645). The experiment in a line: [3H]5HT transport assay in HeLa cells transfected with hSERT cDNA.
The subject of a further series is NCCc1c[nH]c2ccc(O)cc12. The experiment in a line: cells, lysate or membranes. To be noted: other: increasing concentrations of unlabeled 5HT, Eadie-Hofstee transformation, transfected HeLa cells; pH 7.4; 37.0 °C.

Some results are limits rather than exact numbers.

As usually defined, the Km is the concentration of substrate that gives half-maximal velocity. In general, Ki refers to a measure of affinity in units of concentration, obtained from inhibition or displacement.

rat 5HT transporter (rSERT), sequence (P31652 whole entry): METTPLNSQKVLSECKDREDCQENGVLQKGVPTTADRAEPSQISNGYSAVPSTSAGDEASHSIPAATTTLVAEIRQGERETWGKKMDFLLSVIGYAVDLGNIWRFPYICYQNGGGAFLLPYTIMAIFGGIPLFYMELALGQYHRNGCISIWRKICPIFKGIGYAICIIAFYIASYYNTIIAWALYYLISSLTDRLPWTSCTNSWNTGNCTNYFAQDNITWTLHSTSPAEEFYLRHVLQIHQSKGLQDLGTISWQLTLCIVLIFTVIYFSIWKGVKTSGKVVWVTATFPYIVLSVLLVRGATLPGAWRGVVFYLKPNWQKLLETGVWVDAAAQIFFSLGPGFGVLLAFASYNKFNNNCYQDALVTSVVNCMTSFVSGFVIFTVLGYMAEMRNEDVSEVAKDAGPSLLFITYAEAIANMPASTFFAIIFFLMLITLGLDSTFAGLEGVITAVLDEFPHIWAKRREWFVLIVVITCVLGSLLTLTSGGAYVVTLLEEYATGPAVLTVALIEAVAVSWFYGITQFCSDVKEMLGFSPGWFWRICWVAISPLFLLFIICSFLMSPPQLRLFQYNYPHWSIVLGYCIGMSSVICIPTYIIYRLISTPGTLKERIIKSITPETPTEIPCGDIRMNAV
human 5HT transporter (hSERT), sequence (P31645 whole entry): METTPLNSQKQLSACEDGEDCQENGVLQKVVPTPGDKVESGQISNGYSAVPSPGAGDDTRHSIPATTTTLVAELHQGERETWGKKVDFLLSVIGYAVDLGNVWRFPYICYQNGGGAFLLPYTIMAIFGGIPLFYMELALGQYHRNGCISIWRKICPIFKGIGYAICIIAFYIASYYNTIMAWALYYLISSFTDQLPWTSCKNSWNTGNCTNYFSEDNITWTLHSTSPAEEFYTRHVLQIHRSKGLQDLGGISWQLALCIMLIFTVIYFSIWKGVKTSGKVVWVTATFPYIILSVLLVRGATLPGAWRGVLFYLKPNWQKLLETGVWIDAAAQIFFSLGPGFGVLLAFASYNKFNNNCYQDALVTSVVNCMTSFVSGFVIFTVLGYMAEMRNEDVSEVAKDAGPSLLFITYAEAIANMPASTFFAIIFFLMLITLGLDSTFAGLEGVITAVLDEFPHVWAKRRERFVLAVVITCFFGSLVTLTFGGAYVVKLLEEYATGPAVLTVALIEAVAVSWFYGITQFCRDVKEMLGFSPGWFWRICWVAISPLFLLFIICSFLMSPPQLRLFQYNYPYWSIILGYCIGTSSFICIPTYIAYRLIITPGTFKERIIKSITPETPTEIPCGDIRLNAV

On to `NCCc1c[nH]c2ccc(O)cc12` [5HT, 5-hydroxytryptamine], for which the “Vmax of 5HT transport” value in series [1] (increasing concentrations of unlabeled 5HT, transfected HeLa cells) is 6.7×10^-18 mol/cell/min. The Michaelis constant (Km) in series [1] (read-out: Km of 5HT transport, increasing concentrations of unlabeled 5HT, transfected HeLa cells) amounted to 1.5 µM.
In series [1], `NCCc1ccc(O)c(O)c1` [Dopamine, dopamine] had an inhibitory constant (Ki) above 10 µM.
As to `COC(=O)[C@H]1[C@@H](c2ccc(I)cc2)C[C@@H]2CC[C@H]1N2C.O=C(O)C(O)C(O)C(=O)O` [RTI-55, 3β-[4-iodophenyl]tropan-2β-carboxylic acid methyl ester tartrate], the “inhibition of 5HT uptake (in words)” value in series [2] was “increased potency over cocaine”.
Still for that read-out and setting: under `CC(N)Cc1ccccc1` (stereo not drawn) [amphetamine] stands “block 5HT transport at low micromolar concentrations”.
`COC(=O)[C@H]1[C@@H](OC(=O)c2ccccc2)C[C@@H]2CC[C@H]1N2C` [cocaine]: the “potency for 5HT transport inhibition compared with inhibition of the cloned NA carrier” value in series [1] (rSERT in transfected cells vs cloned NA transporter) was “predictably lower potency”. Also, in series [1] (transfected HeLa cells), the “antagonism of 5HT transport (in words)” value is reported as “blocked 5HT transport”. Further, the “inhibition of 5HT uptake (in words)” value in series [2] was “block 5HT transport at low micromolar concentrations”.
`NCCc1c[nH]cn1` [histamine] returned a Ki in series [1] above 10 µM.
On the same count and under the same terms, the same measure for `OC1(c2ccc(Cl)cc2)c2ccccc2C2=NCCN21` (stereo not drawn) [mazindol]: 10 µM; for `NC[C@H](O)c1ccc(O)c(O)c1` [noradrenaline]: above 10 µM.
Take “human 5HT transporter (hSERT) (Homo sapiens)”: the Michaelis constant (Km) in the series with NCCc1c[nH]c2ccc(O)cc12 worked out at 0.463 µM.

The values are drawn from patent US5418162A, “Serotonin transporter CDNA” (Duke University, priority 1992, dated 1995).
